Measurements as given in patent publication US20060004197A1, “Sulfonamide-based compounds as protein tyrosine kinase inhibitors” (priority 2004, published 2006).

Legend:
Format in all cases: biochemical
FGF receptor (FGFr) = assay: FGFr tyrosine kinase activity, poly E4Y / 32P-ATP phosphorylation assay
Recombinant human Src = molecular target: T1, Recombinant human Src (Homo sapiens, UniProt P12931); assay: Src tyrosine kinase activity, poly E4Y / 32P-ATP phosphorylation assay
T1 construct: made in house; host or cells: baculovirus-insect cell system

Recombinant Csk = Recombinant Csk (Homo sapiens, UniProt P41240); assay: Csk tyrosine kinase activity, poly E4Y / 32P-ATP phosphorylation assay
[1] = Table 3, Formula II compounds, NI = no inhibition at 100 μg/mL
[2] = Table 4, Formula III compounds, NI = no inhibition at 100 μg/mL
[3] = poly E4Y / 32P-ATP, Formula IV compounds
[4] = Table 2, Formula I compounds, NI = no inhibition at 100 μg/mL

IC50 (μM) FGFr (FGF receptor (FGFr); [3])	IC50 (Recombinant human Src; [3])	IC50 (Recombinant Csk; [3])	Molecule	further results
NI (NI = no inhibition at 100 μg/mL)	51 µM	> 205 µM	Cc1ccc(C(=O)Nc2ccc(Sc3ccc(Cl)cc3)cc2NC(=O)c2ccc(C)cc2)cc1 [Compound 52, N-[4-(4-chloro-phenylsulfanyl)-2-(4-toluoylamino)-phenyl]-4-toluamide]	
	388 µM	261 µM	Cc1ccc(S(=O)(=O)N(C)c2cc(Sc3ccc(Cl)cc3)c([N+](=O)[O-])cc2N(C)S(=O)(=O)c2ccc(C)cc2)cc1 [Compound 53, N-[4-(4-chloro-phenylsulfanyl)-5-nitro-2-(4-toluenesulfonyl-methyl-amino)-phenyl]-N-methyl-4-toluenesulfonamide]	IC50 (FGF receptor (FGFr); [3]): 254 µM
	33 µM	> 222 µM	Cc1ccc(S(=O)(=O)Nc2cc([N+](=O)[O-])c(Sc3ccc(Cl)cc3)cc2N)cc1 [Compound 55, N-[2-amino-4-(4-chloro-phenylsulfanyl)-5-nitro-phenyl]-4-toluenesulfonamide]	IC50 (FGF receptor (FGFr); [3]): 2.2 µM
	> 242 µM	> 242 µM	Cc1ccc(C(=O)Nc2cc([N+](=O)[O-])c(Sc3ccc(Cl)cc3)cc2N)cc1 [Compound 56, N-[2-amino-4-(4-chloro-phenylsulfanyl)-5-nitro-phenyl]-4-toluamide]	IC50 (FGF receptor (FGFr); [3]): 410 µM
	65 µM	> 259 µM	COc1ccc(Oc2ccc(NS(=O)(=O)c3ccc(C)cc3)c(O)c2)cc1 [Compound 59, N-[2-hydroxy-4-(4-methoxy-phenoxy)-phenyl]-4-toluenesulfonamide]	IC50 (FGF receptor (FGFr); [3]): 65 µM
NI (NI = no inhibition at 100 μg/mL)	129 µM	> 250 µM	COc1ccc(Oc2ccc(NS(=O)(=O)c3ccc(C)cc3)c(OC)c2)cc1 [Compound 60, N-[2-methoxy-4-(4-methoxy-phenoxy)-phenyl]-4-toluenesulfonamide]	
NI (NI = no inhibition at 100 μg/mL)	177 µM	> 242 µM	COc1ccc(Oc2ccc(N(C)S(=O)(=O)c3ccc(C)cc3)c(OC)c2)cc1 [Compound 61, N-[2-methoxy-4-(4-methoxy-phenoxy)-phenyl]-N-methyl-4-toluenesulfonamide]	
NI (NI = no inhibition at 100 μg/mL)	126 µM	15 µM	COc1ccc(Oc2ccc(NS(=O)(=O)c3ccc(C)cc3)c(OCCO)c2)cc1 [Compound 62, N-[2-(2-hydroxy-ethoxy)-4-(4-methoxy-phenoxy)-phenyl]-4-toluenesulfonamide]	
NI (NI = no inhibition at 100 μg/mL)	212 µM	> 225 µM	COc1ccc(Oc2ccc(NS(=O)(=O)c3ccc(C)cc3)c(OCCCO)c2)cc1 [Compound 63, N-[2-(3-hydroxy-propoxy)-4-(4-methoxy-phenoxy)-phenyl]-4-toluenesulfonamide]	
NI (NI = no inhibition at 100 μg/mL)	189 µM	> 218 µM	COc1ccc(Oc2ccc(NS(=O)(=O)c3ccc(C)cc3)c(OCC(O)CO)c2)cc1 (stereo not drawn) [Compound 64, N-[2-(2,3-dihydroxy-propoxy)-4-(4-methoxy-phenoxy)-phenyl]-4-toluenesulfonamide]	
NI (NI = no inhibition at 100 μg/mL)	169 µM	> 225 µM	COc1ccc(Oc2ccc(NS(=O)(=O)c3ccc(C)cc3)c(OCC(=O)O)c2)cc1 [Compound 65, [5-(4-methoxy-phenoxy)-2-(4-toluenesulfonylamino)-phenoxy]-acetic acid]	
	119 µM	> 242 µM	COc1ccc(OCc2ccc(OC)c(NS(=O)(=O)c3ccc(C)cc3)c2)cc1 [Compound 66, N-[2-methoxy-5-(4-methoxy-phenoxymethyl)-phenyl]-4-toluenesulfonamide]	IC50 (FGF receptor (FGFr); [3]): 162 µM
NI (NI = no inhibition at 100 μg/mL)	133 µM	303 µM	COc1ccc(Oc2ccc(NS(=O)(=O)c3ccc(C)cc3)c(C(=O)O)c2)cc1 [Compound 68, 5-(4-methoxy-phenoxy)-2-(4-toluenesulfonylamino)-benzoic acid]	
NI (NI = no inhibition at 100 μg/mL)	1970 µM	986 µM	Cc1ccc(S(=O)(=O)Nc2ccc(Sc3ccc(Cl)cc3)c([N+](=O)[O-])c2)cc1 [Compound 69, N-[4-(4-chloro-phenylsulfanyl)-3-nitro-phenyl]-4-toluenesulfonamide]	
	599 µM	369 µM	Cc1ccc(S(=O)(=O)Nc2ccc([N+](=O)[O-])c(Sc3ccc(Cl)cc3)c2)cc1 [Compound 70, N-[3-(4-chloro-phenylsulfanyl)-4-nitro-phenyl]-4-toluenesulfonamide]	IC50 (FGF receptor (FGFr); [3]): 251 µM

Continued, molecule first:

Molecule	IC50 (μM) FGFr (FGF receptor (FGFr); [3])	IC50 (Recombinant human Src; [3])	IC50 (Recombinant Csk; [3])	further results
Cc1ccc(S(=O)(=O)Nc2ccc(N3CCN(S(=O)(=O)c4ccc(C)cc4)CC3)cc2NS(=O)(=O)c2ccc(C)cc2)cc1 [Compound 17e, N-{2-(4-toluenesulfonylamino)-4-[4-(toluene-4-sulfonyl)-piperazin-1-yl]-phenyl}-4-toluenesulfonamide]				IC50 (FGF receptor (FGFr); [1]): 21 µM; IC50 (Recombinant human Src; [1]): 19 µM; IC50 (Recombinant Csk; [1]): > 153 µM
Cc1ccc(S(=O)(=O)Nc2ccc(N3CCOCC3)cc2NS(=O)(=O)c2ccc(C)cc2)cc1 [Compound 17f, N-[4-(morpholin-4-yl)-2-(4-toluenesulfonylamino)-phenyl]-4-toluenesulfonamide]				IC50 (FGF receptor (FGFr); [1]): 50 µM; IC50 (Recombinant human Src; [1]): 38 µM; IC50 (Recombinant Csk; [1]): > 199 µM
Cc1ccc(S(=O)(=O)Nc2ccc(-c3ccc(Cl)cc3)cc2NS(=O)(=O)c2ccc(C)cc2)cc1 [Compound 21, N-[4-(4-chloro-phenyl)-2-(4-toluenesulfonylamino)-phenyl]-4-toluenesulfonamide]				IC50 (FGF receptor (FGFr); [1]): 23 µM; IC50 (Recombinant human Src; [1]): 8.6 µM; IC50 (Recombinant Csk; [1]): > 190 µM
COc1cccc(NS(=O)(=O)c2ccc(C)cc2)c1NS(=O)(=O)c1ccc(C)cc1 [Compound 22a, N-[3-methoxy-2-(4-toluenesulfonylamino)-phenyl]-4-toluenesulfonamide]				IC50 (μM) FGFr (FGF receptor (FGFr); [1]): NI (NI = no inhibition at 100 μg/mL); IC50 (Recombinant human Src; [1]): > 224 µM; IC50 (Recombinant Csk; [1]): > 224 µM
Cc1ccc(S(=O)(=O)Nc2cc(N)c(Sc3ccc(Cl)cc3)cc2NS(=O)(=O)c2ccc(C)cc2)cc1 [Compound 23, N-[5-amino-4-(4-chloro-phenylsulfanyl)-2-(4-toluenesulfonylamino)-phenyl]-4-toluenesulfonamide]				IC50 (FGF receptor (FGFr); [2]): 56 µM; IC50 (Recombinant human Src; [2]): 58 µM; IC50 (Recombinant Csk; [2]): 280 µM
CC(=O)Nc1cc(NS(=O)(=O)c2ccc(C)cc2)c(NS(=O)(=O)c2ccc(C)cc2)cc1Sc1ccc(Cl)cc1 [Compound 24, N-[2-(4-chloro-phenylsulfanyl)-4,5-bis-(4-toluenesulfonylamino)-phenyl]-acetamide]				IC50 (FGF receptor (FGFr); [2]): 515 µM; IC50 (Recombinant human Src; [2]): > 162 µM; IC50 (Recombinant Csk; [2]): > 162 µM
COC(=O)c1cc(NS(=O)(=O)c2ccc(C)cc2)c(NS(=O)(=O)c2ccc(C)cc2)cc1Oc1ccc(OC)cc1 [Compound 33, Methyl 2-(4-methoxy-phenoxy)-4,5-bis-(4-toluenesulfonylamino)-benzoate]				IC50 (μM) FGFr (FGF receptor (FGFr); [2]): NI (NI = no inhibition at 100 μg/mL); IC50 (Recombinant human Src; [2]): 67 µM; IC50 (Recombinant Csk; [2]): > 168 µM
Cc1ccc(S(=O)(=O)Nc2cc(Br)c(Br)cc2NS(=O)(=O)c2ccc(C)cc2)cc1 [Compound 38a, N-[4,5-dibromo-2-(4-toluenesulfonylamino)-phenyl]-4-toluenesulfonamide]				IC50 (FGF receptor (FGFr); [2]): 110 µM; IC50 (Recombinant human Src; [2]): 31 µM; IC50 (Recombinant Csk; [2]): > 174 µM
COc1ccc(OCc2ccc(OS(=O)(=O)c3ccc(C)cc3)c(OS(=O)(=O)c3ccc(C)cc3)c2)cc1 [Compound 48, [4-(4-methoxy-phenoxymethyl)-2-(4-toluenesulfonyloxy)-phenyl]-4-toluenesulfonate]	NI (NI = no inhibition at 100 μg/mL)	102 µM	> 180 µM	
Cc1ccc(C(=O)Nc2cc(Sc3ccc(Cl)cc3)c([N+](=O)[O-])cc2NC(=O)c2ccc(C)cc2)cc1 [Compound 51, N-[4-(4-chloro-phenylsulfanyl)-5-nitro-2-(4-toluoylamino)-phenyl]-4-toluamide]		153 µM	51 µM	IC50 (FGF receptor (FGFr); [3]): 40 µM
N-[4-chloro-2-(4-toluenesulfonylamino)-phenyl]-4-toluenesulfonamide [Compound 6]				IC50 (FGF receptor (FGFr); [4]): 20.2 µM; IC50 (Recombinant human Src; [4]): 1060 µM; IC50 (Recombinant Csk; [4]): 172 µM
